Results taken from US9481659B2, “Selective heterocyclic sphingosine 1 phosphate receptor modulators” (Celgene International II SÀRL, priority 2011, dated 2016).
pEC50: −log10 of the molar value. Counter-ions that a name gives are not always drawn.

Target: S1P1/EDG1 (Homo sapiens, UniProt P21453)
Experiment: S1P1 CRE-bla CHOK1 reporter assay, inhibition of Forskolin induced cAMP
Assay type: cell-based
Conditions: agonist activity range; S1P1 CRE-bla CHOK1 cells, 2 μM Forskolin; read-out: S1P1 ACTIVITY
Description: Generation of S1P1-Mediated Inhibition of cAMP Reporter Assay
A mammalian expression plasmid containing S1P1/EDG1 cloned into pcDNA3.1 was purchased from Missouri S&T cDNA Resource Centre. […] S1P1/pcDNA3.1 was transfected into the CRE-bla CHO K1 (Invitrogen) cell line, and stable single cell clones were selected using standard techniques.
S1P1 CRE-Bla CHOK1 Reporter Assay—Characterization of S1P1 Agonists
Cells were seeded into 384-well black wall/clear bottom plates at 10^4 cells/well/19.5 μl assay media (DMEM-phenol free, 0.5% charcoal/dextran stripped serum, 2 mM glutamine, 0.1 mM NEAA, 1 mM Na-Pyruvate, 25 mM Hepes) and incubated for 18 hrs at 37° C. in 5% CO2. Dose response curves (10-point) were generated in 10 mM Hepes, 0.1% Pluronic F127, in the presence of Forskolin. Cells were treated with 0.5 μl compound in the presence of 2 μM Forskolin for 4 hrs at 37° C. The FRET-based β-lactamase fluorescent substrate (LiveBLAzer™-FRET B/G Loading Kit CC4-AM; Invitrogen) was prepared according to manufacturer's directions, and incubated with cells for 2 hrs at room temperature.

S1P1/EDG1, sequence (P21453 whole entry): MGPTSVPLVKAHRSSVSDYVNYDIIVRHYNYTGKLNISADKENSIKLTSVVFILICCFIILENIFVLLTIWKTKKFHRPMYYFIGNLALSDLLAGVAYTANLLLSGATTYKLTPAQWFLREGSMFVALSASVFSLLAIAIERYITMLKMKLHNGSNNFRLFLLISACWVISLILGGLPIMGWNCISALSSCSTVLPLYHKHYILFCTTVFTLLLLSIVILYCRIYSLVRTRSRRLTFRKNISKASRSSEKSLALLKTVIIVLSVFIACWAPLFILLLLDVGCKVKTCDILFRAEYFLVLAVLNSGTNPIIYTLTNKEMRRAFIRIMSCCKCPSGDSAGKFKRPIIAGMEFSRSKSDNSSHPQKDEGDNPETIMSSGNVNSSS

`CC(C)Oc1ccc(-c2nnc(-c3cccc4c3CCC[C@@H]4NS(=O)(=O)CC(=O)N(C)C)s2)cc1C#N` [Compound 293, (S)-2-(N-(5-(5-(3-cyano-4-isopropoxyphenyl)-1,3,4-thiadiazol-2-yl)-1,2,3,4-tetrahydronaphthalen-1-yl)sulfamoyl)-N,N-dimethylacetamide] was tested, and the pEC50 was 9.30 to 10.30.

`CC(C)Oc1ccc(-c2nnc(-c3cccc4c3CCC4NS(=O)(=O)CCN3CC[C@@H](O)C3)s2)cc1C#N` (stereo in doubt) [Compound 37, N—((S)-4-(5-(3-cyano-4-isopropoxyphenyl)-1,3,4-thiadiazol-2-yl)-2,3-dihydro-1H-inden-1-yl)-2-((R)-3-hydroxypyrrolidin-1-yl)ethanesulfonamide] was tested, and the pEC50 was 8.30 to 9.30.

`CC(C)Oc1ccc(-c2nnc(-c3cccc4c3CCC[C@H]4NS(=O)(=O)CC(=O)O)s2)cc1C#N` [Compound 287, (R)-2-(N-(5-(5-(3-cyano-4-isopropoxyphenyl)-1,3,4-thiadiazol-2-yl)-1,2,3,4-tetrahydronaphthalen-1-yl)sulfamoyl)acetic acid] gave a pEC50 of 9.30 to 10.30.

For `CC(C)Oc1ccc(-c2nnc(-c3cccc4c3CCC[C@H]4NC(=O)CCN(C)C)s2)cc1C#N` [Compound 257, (R)—N-(5-(5-(3-cyano-4-isopropoxyphenyl)-1,3,4-thiadiazol-2-yl)-1,2,3,4-tetrahydronaphthalen-1-yl)-3-(dimethylamino)propanamide], the pEC50 was less than 8.30.

`CC(C)Oc1ccc(-c2nsc(-c3cccc4c3CC[C@@H]4NS(N)(=O)=O)n2)cc1C#N` [Compound 310, (S)—N-(4-(3-(3-cyano-4-isopropoxyphenyl)-1,2,4-thiadiazol-5-yl)-2,3-dihydro-1H-inden-1-yl) sulfamide] gave a pEC50 of 9.30 to 10.30.

Molecule `CC(C)Oc1ccc(-c2ncc(-c3cccc4c3CC[C@@H]4NS(=O)(=O)CCN3CCC[C@@H](O)C3)s2)cc1C#N` [Compound 141, N—((S)-4-(2-(3-cyano-4-isopropoxyphenyl)thiazol-5-yl)-2,3-dihydro-1H-inden-1-yl)-2-((R)-3-hydroxypiperidin-1-yl)ethanesulfonamide] has a pEC50 of 8.30 to 9.30.

Molecule `CC(C)Oc1ccc(-c2nnc(-c3cccc4c3CC[C@H]4NC(=O)CN)s2)cc1C#N` [Compound 9] has a pEC50 of 9.30 to 10.30.

With `CC(C)Oc1ccc(-c2nnc(-c3cccc4c3CCC[C@H]4NC(=O)CCO)s2)cc1C#N` [Compound 259] the pEC50 was 9.30 to 10.30.

`COCCS(=O)(=O)N[C@@H]1CCc2c(-c3cnc(-c4ccc(OC(C)C)c(C#N)c4)s3)cccc21` [Compound 116] was tested, and the pEC50 was 8.30 to 9.30.

With `CC(C)Oc1ccc(-c2nnc(-c3cccc4c3CC[C@H]4NC(=O)N3CCC(O)CC3)s2)cc1C#N` [Compound 62] the pEC50 was 8.30 to 9.30.

With `CC(C)Oc1ccc(-c2nnc(-c3cccc4c3CC[C@H]4NCCO)s2)cc1C#N` [Compound 17, (R)-5-(5-(1-((2-hydroxyethyl)amino)-2,3-dihydro-1H-inden-4-yl)-1,3,4-thiadiazol-2-yl)-2-isopropoxybenzonitrile] the pEC50 was 9.30 to 10.30.

Molecule `CC(C)Oc1ccc(-c2nnc(-c3cccc4c3CCC[C@H]4NS(=O)(=O)C3CC3)s2)cc1C#N` [Compound 282] has a pEC50 of 8.30 to 9.30.

`CC(C)Oc1ccc(-c2ncc(-c3cccc4c3CC[C@H]4NS(=O)(=O)Cc3ccccc3)s2)cc1C#N` [Compound 120] was tested, and the pEC50 was 8.30 to 9.30.

`CC(C)Oc1ccc(-c2ncc(-c3cccc4c3CC[C@H]4NCC(=O)N3CC[C@@H](O)C3)s2)cc1C#N` [Compound 103] showed a pEC50 of 9.30 to 10.30.

Molecule `CC(C)Oc1ccc(-c2ncc(-c3cccc4c3CC[C@H]4NCCS(C)(=O)=O)s2)cc1C#N` [Compound 220, (R)-2-isopropoxy-5-(5-(1-((2-(methylsulfonyl)ethyl)amino)-2,3-dihydro-1H-inden-4-yl)thiazol-2-yl)benzonitrile] has a pEC50 of 9.30 to 10.30.

For `CNC(=O)CN[C@H]1CCCc2c(-c3nnc(-c4ccc(OC(C)C)c(C#N)c4)s3)cccc21` [Compound 306], the pEC50 was 9.30 to 10.30.

With `CC(C)Oc1ccc(-c2ncc(-c3cccc4c3CC[C@H]4NCC(=O)N3CCCC3)s2)cc1C#N` [Compound 100] the pEC50 was 9.30 to 10.30.

For `CC(C)Oc1ccc(-c2nnc(-c3cccc4c3CCC[C@H]4N)s2)cc1C#N` [Compound 228, (R)-5-(5-(5-amino-5,6,7,8-tetrahydronaphthalen-1-yl)-1,3,4-thiadiazol-2-yl)-2-isopropoxybenzonitrile hydrochloride], the pEC50 was 8.30 to 9.30.

With `CC(C)Oc1ccc(-c2ncc(-c3cccc4c3CC[C@H]4NS(=O)(=O)CCN3CCC(O)CC3)s2)cc1C#N` [Compound 146] the pEC50 was 8.30 to 9.30.

`CC(C)Oc1ccc(-c2ncc(-c3cccc4c3CC[C@H]4NCc3ncc[nH]3)s2)cc1C#N` [Compound 109, (R)-5-(5-(1-(((1H-imidazol-2-yl)methyl)amino)-2,3-dihydro-1H-inden-4-yl)thiazol-2-yl)-2-isopropoxybenzonitrile] was tested, and the pEC50 was 8.30 to 9.30.

`CNCCC(=O)N[C@@H]1CCCc2c(-c3nnc(-c4ccc(OC(C)C)c(C#N)c4)s3)cccc21` [Compound 260] showed a pEC50 of 8.30 to 9.30.

Work on `CC(C)Oc1ccc(-c2nnc(-c3cccc4c3CCC[C@H]4NS(N)(=O)=O)s2)cc1C#N` [Compound 275, (R)—N-(5-(5-(3-cyano-4-isopropoxyphenyl)-1,3,4-thiadiazol-2-yl)-1,2,3,4-tetrahydronaphthalen-1-yl) sulfamide] yielded a pEC50 of 9.30 to 10.30.

`CC(C)Oc1ccc(-c2nnc(-c3cccc4c3CC[C@H]4NCC(=O)N3CCOCC3)s2)cc1C#N` [Compound 25] gave a pEC50 of 9.30 to 10.30.

With `COCCN[C@@H]1CCc2c(-c3nnc(-c4ccc(OC(C)C)c(C#N)c4)s3)cccc21` [Compound 19] the pEC50 was 8.30 to 9.30.

With `CC(C)Oc1ccc(-c2ncc(-c3cccc4c3CC[C@H]4NS(=O)(=O)CCN3CC[C@@H](N)C3)s2)cc1C#N` [Compound 135] the pEC50 was less than 8.30.

`COC(=O)CS(=O)(=O)N[C@H]1CCCc2c(-c3nnc(-c4ccc(OC(C)C)c(C#N)c4)s3)cccc21` [Compound 284, (S)-methyl 2-(N-(5-(5-(3-cyano-4-isopropoxyphenyl)-1,3,4-thiadiazol-2-yl)-1,2,3,4-tetrahydronaphthalen-1-yl)sulfamoyl)acetate] gave a pEC50 of 8.30 to 9.30.

Molecule `CC(C)Oc1ccc(-c2nnc(-c3cccc4c3CCC[C@@H]4NCC(=O)O)s2)cc1C#N` [Compound 302, (S)-2-((5-(5-(3-cyano-4-isopropoxyphenyl)-1,3,4-thiadiazol-2-yl)-1,2,3,4-tetrahydronaphthalen-1-yl)amino)acetic acid] has a pEC50 of 9.30 to 10.30.

`CC(C)Oc1ccc(-c2nnc(-c3cccc4c3CCC[C@@H]4NC(=O)c3cccnc3)s2)cc1C#N` [Compound 242] showed a pEC50 of 8.30 to 9.30.

With `CC(C)Oc1ccc(-c2ncc(-c3cccc4c3CC[C@H]4NS(=O)(=O)CC(=O)O)s2)cc1C#N` [Compound 158, (R)-2-(N-(4-(2-(3-cyano-4-isopropoxyphenyl)thiazol-5-yl)-2,3-dihydro-1H-inden-1-yl)sulfamoyl)acetic acid] the pEC50 was greater than 10.30.

Work on `CC(C)Oc1ccc(-c2nnc(-c3cccc4c3CCC[C@H]4NCC(=O)O)s2)cc1C#N` [Compound 301, (R)-2-((5-(5-(3-cyano-4-isopropoxyphenyl)-1,3,4-thiadiazol-2-yl)-1,2,3,4-tetrahydronaphthalen-1-yl)amino)acetic acid] yielded a pEC50 of 9.30 to 10.30.

For `COC(=O)CCS(=O)(=O)N[C@@H]1CCc2c(-c3cnc(-c4ccc(OC(C)C)c(C#N)c4)s3)cccc21` [Compound 156], the pEC50 was 9.30 to 10.30.

Molecule `CC(C)Oc1ccc(-c2nc(-c3cccc4c3CC[C@@H]4N)ns2)cc1C#N` [Compound 307, (S)-5-(3-(1-amino-2,3-dihydro-1H-Inden-4-yl)-1,2,4-thiadiazol-5-yl)-2-isopropoxy benzonitrile hydrochloride] has a pEC50 of 8.30 to 9.30.

`CC(C)Oc1ccc(-c2ncc(-c3cccc4c3CC[C@H]4NC(=O)N3CCC(CO)CC3)s2)cc1C#N` [Compound 195] was tested, and the pEC50 was 8.30 to 9.30.

Molecule `CC(C)Oc1ccc(-c2ncc(-c3cccc4c3CC[C@H]4NC(=O)N3CCC[C@@H](O)C3)s2)cc1C#N` [Compound 198] has a pEC50 of 9.30 to 10.30.

Work on `CC(C)Oc1ccc(-c2ncc(-c3cccc4c3CC[C@H]4NC(=O)N3CC[C@H](N)C3)s2)cc1C#N` [Compound 179] yielded a pEC50 of 8.30 to 9.30.

For `CC(C)Oc1ccc(-c2ncc(-c3cccc4c3CC[C@H]4NC(=O)CN(C)C)s2)cc1C#N` [Compound 81], the pEC50 was 8.30 to 9.30.

`CNCC(=O)N[C@H]1CCCc2c(-c3nnc(-c4ccc(OC(C)C)c(C#N)c4)s3)cccc21` [Compound 252] showed a pEC50 of 9.30 to 10.30.

Molecule `CC(C)Oc1ccc(-c2ncc(-c3cccc4c3CC[C@H]4NS(=O)(=O)CCN3CCCCC3)s2)cc1C#N` [Compound 140] has a pEC50 of less than 8.30.

Molecule `CC(C)Oc1ccc(-c2ncc(-c3cccc4c3CC[C@H]4NC(=O)N3CCC(N(C)C)CC3)s2)cc1C#N` [Compound 192] has a pEC50 of less than 8.30.

For `CC(C)Oc1ccc(-c2nnc(-c3cccc4c3CC[C@H]4NCC(=O)N(C)C)s2)cc1C#N` [Compound 22, (R)-2-((4-(5-(3-cyano-4-isopropoxyphenyl)-1,3,4-thiadiazol-2-yl)-2,3-dihydro-1H-inden-1-yl)amino)-N,N-dimethylacetamide hydrochloride], the pEC50 was 9.30 to 10.30.

In the case of `CCS(=O)(=O)N[C@@H]1CCc2c(-c3cnc(-c4ccc(OC(C)C)c(C#N)c4)s3)cccc21` [Compound 113], the pEC50 was 9.30 to 10.30.

`CC(C)Oc1ccc(-c2nnc(-c3cccc4c3CCC[C@@H]4NC(=O)CCN(C)C)s2)cc1C#N` [Compound 256, (S)—N-(5-(5-(3-cyano-4-isopropoxyphenyl)-1,3,4-thiadiazol-2-yl)-1,2,3,4-tetrahydronaphthalen-1-yl)-3-(dimethylamino)propanamide] gave a pEC50 of 8.30 to 9.30.
